Literature values as cited in patent EP3623369A1, “NOVEL MORPHOLINYL AMINE COMPOUNDS FOR THE TREATMENT OF AUTOIMMUNE DISEASE” (F. Hoffmann-La Roche AG, priority 2018, dated 2020).

Assays:
hTLR7 = biological target: T1, hTLR7 (Homo sapiens, UniProt Q9NYK1); design: host or cells: HEK; conditions: data disclosed in US20150105370; read-out: HEK/hTLR7 IC50; cited from earlier work
T1 sequence (Q9NYK1 27-1049): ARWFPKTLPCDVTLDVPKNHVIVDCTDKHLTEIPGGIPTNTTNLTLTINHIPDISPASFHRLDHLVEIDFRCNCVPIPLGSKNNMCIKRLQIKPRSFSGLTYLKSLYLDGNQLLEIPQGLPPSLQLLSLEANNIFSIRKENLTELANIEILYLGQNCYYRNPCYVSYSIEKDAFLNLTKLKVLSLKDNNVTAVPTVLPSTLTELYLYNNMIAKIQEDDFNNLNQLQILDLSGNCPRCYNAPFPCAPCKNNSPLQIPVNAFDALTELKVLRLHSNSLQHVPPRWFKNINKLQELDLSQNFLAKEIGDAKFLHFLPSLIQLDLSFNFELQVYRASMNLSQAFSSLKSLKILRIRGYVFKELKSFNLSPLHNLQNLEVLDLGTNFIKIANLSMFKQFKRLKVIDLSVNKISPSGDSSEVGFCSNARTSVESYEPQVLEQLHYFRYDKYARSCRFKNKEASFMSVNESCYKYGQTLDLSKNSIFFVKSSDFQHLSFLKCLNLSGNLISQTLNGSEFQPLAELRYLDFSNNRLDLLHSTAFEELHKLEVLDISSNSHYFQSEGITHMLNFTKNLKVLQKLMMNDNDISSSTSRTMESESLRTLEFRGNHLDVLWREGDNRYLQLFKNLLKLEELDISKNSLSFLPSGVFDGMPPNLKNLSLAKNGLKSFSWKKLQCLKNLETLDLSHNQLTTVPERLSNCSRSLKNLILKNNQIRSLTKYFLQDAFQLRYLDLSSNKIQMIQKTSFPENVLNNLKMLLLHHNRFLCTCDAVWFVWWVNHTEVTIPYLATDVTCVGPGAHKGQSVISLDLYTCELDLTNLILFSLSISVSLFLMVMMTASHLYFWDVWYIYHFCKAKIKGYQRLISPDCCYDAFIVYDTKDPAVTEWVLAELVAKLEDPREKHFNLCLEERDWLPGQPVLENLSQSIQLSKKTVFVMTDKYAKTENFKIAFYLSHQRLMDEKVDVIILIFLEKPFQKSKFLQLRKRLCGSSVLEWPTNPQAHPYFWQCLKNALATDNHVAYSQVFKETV

hTLR9 = biological target: T2, hTLR9 (Homo sapiens, UniProt Q9NR96); design: host or cells: HEK; conditions: data disclosed in US20150105370; read-out: HEK/hTLR9 IC50; cited from earlier work
T2 sequence (Q9NR96 26-1032): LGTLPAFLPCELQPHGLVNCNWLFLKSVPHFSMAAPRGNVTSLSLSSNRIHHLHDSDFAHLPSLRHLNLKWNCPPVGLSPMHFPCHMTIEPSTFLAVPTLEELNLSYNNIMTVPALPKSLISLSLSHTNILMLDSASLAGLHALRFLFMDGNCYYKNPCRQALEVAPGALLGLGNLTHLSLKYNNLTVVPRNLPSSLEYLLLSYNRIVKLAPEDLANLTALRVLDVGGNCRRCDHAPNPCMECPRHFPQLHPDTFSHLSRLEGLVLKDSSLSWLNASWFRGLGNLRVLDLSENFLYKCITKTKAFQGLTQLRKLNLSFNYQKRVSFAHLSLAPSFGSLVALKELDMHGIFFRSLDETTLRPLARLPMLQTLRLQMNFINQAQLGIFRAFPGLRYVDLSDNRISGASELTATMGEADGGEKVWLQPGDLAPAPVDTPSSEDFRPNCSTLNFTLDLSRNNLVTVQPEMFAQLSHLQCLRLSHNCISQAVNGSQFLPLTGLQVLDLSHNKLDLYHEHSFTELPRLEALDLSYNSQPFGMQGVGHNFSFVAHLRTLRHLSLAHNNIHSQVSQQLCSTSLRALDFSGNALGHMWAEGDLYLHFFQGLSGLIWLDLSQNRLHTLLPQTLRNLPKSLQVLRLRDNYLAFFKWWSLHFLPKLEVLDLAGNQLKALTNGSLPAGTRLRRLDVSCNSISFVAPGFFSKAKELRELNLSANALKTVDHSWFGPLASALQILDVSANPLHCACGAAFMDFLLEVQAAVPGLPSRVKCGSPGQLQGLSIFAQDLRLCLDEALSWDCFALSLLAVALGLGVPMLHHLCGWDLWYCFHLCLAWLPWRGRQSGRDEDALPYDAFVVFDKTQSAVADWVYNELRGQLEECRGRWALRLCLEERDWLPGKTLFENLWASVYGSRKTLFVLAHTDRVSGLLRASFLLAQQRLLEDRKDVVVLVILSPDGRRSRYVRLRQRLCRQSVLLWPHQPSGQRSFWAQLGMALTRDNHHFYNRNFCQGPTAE

C[C@@H]1CN(c2ccc(C#N)c3ncccc23)C[C@H](CNCc2ccccc2)O1 [ER-886509, reference compound]
IC50 (hTLR7): 44 nM
IC50 (hTLR9): 3940 nM
